Reference: US11260049B2, “TRPV4 antagonists” (GlaxoSmithKline Intellectual Property (No. 2) Limited, priority 2016, dated 2022)
Values belong to the compound of their own block, whether it stands above or below them.

Biological target: human TRPV4 (Homo sapiens (Human), UniProt Q9HBA0)
Experiment: FLIPR assay for hTRPV4 expressed in BHK cells
Assay type: cell-based
Conditions: inhibition of Agonist Compound (EC80)-induced calcium signal; BHK/AC9 cells expressing human TRPV4; read-out: IC50
Procedure, shortened: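 BHK/AC9 cells transduced with BacMam human TRPV4 (MOI 78), 15,000 cells/well, cultured 24 h at 37 °C. Loaded with 2 μM Fluo-4 AM and 500 μM Brilliant Black in HBSS for 1–1.5 h at room temperature in the dark. Intracellular calcium influx monitored by fluorescence.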

Sequence of human TRPV4 (Q9HBA0 whole entry): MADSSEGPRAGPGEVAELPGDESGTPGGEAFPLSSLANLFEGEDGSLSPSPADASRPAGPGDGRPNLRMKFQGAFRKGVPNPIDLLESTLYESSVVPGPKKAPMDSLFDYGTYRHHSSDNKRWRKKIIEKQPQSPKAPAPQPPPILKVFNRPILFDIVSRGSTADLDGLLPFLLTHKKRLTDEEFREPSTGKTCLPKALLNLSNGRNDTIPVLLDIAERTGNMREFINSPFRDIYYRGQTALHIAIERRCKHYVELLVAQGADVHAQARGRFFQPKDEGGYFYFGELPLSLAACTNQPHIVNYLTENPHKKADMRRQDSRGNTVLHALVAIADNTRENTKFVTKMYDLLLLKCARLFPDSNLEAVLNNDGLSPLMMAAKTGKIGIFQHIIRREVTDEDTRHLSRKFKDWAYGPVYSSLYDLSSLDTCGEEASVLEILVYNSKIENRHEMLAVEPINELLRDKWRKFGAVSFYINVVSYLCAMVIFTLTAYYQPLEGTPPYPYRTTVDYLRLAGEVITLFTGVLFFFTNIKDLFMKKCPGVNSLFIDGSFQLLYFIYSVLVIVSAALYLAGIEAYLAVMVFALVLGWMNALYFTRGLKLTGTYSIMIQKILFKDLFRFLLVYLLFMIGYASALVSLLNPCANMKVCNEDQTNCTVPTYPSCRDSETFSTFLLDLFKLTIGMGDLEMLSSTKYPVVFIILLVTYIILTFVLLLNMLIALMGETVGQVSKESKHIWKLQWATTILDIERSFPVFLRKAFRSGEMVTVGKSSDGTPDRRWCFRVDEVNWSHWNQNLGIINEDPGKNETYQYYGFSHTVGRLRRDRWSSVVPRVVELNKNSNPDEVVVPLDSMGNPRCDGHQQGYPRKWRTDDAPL

SMILES: N#Cc1ccc(S(=O)(=O)[C@H]2CN(S(=O)(=O)c3ccc(Cl)cc3Cl)C[C@@]2(O)CO)c(F)c1 [Example 86, 4-(((3S,4R)-1-((2,4-dichlorophenyl)sulfonyl)-4-hydroxy-4-(hydroxymethyl)pyrrolidin-3-yl)sulfonyl)-3-fluorobenzonitrile]
- IC50: 0.01 to 0.1 µM

SMILES: N#Cc1c(F)cc(S(=O)(=O)[C@H]2CN(S(=O)(=O)c3ccc(Cl)cc3Cl)C[C@@]2(O)CO)cc1F [Example 87, 4-(((3S,4R)-1-((2,4-dichlorophenyl)sulfonyl)-4-hydroxy-4-(hydroxymethyl)pyrrolidin-3-yl)sulfonyl)-2,6-difluorobenzonitrile]
- IC50: 0.0001 to 0.01 µM

SMILES: O=S(=O)(c1ccc(Cl)c(F)c1)[C@H]1CN(S(=O)(=O)c2ccc(Cl)cc2Cl)C[C@@]1(O)CO [Example 88, (3R,4S)-4-((4-chloro-3-fluorophenyl)sulfonyl)-1-((2,4-dichlorophenyl)sulfonyl)-3-(hydroxymethyl)pyrrolidin-3-ol]
- IC50: 0.0001 to 0.01 µM

SMILES: N#Cc1ccc(S(=O)(=O)[C@H]2CN(S(=O)(=O)c3ccc(C(F)(F)F)cc3Cl)C[C@@]2(O)CO)cc1 [Example 89, 4-(((3S,4R)-1-((2-chloro-4-(trifluoromethyl)phenyl)sulfonyl)-4-hydroxy-4-(hydroxymethyl)pyrrolidin-3-yl)sulfonyl)benzonitrile]
- IC50: 0.01 to 0.1 µM

SMILES: N#Cc1ccc(S(=O)(=O)[C@H]2CN(S(=O)(=O)c3ccc(C(F)(F)F)cc3Cl)C[C@]2(O)CO)cc1 [Example 90, 4-(((3S,4S)-1-((2-chloro-4-(trifluoromethyl)phenyl)sulfonyl)-4-hydroxy-4-(hydroxymethyl)pyrrolidin-3-yl)sulfonyl)benzonitrile]
- IC50: 0.01 to 0.1 µM

SMILES: N#Cc1c(F)cc(S(=O)(=O)[C@H]2CN(S(=O)(=O)c3ccc(C(F)(F)F)cc3Cl)C[C@@]2(O)CO)cc1F [Example 91, 4-(((3S,4R)-1-((2-chloro-4-(trifluoromethyl)phenyl)sulfonyl)-4-hydroxy-4-(hydroxymethyl)pyrrolidin-3-yl)sulfonyl)-2,6-difluorobenzonitrile]
- IC50: 0.01 to 0.1 µM

SMILES: N#Cc1ccc(S(=O)(=O)[C@H]2CN(S(=O)(=O)c3ccc(C(F)(F)F)cc3Cl)C[C@@]2(O)CO)cn1 [Example 92, 5-(((3S,4R)-1-((2-chloro-4-(trifluoromethyl)phenyl)sulfonyl)-4-hydroxy-4-(hydroxymethyl)pyrrolidin-3-yl)sulfonyl)picolinonitrile]
- IC50: 0.01 to 0.1 µM

- IC50: 0.01 to 0.1 µM
SMILES: N#Cc1cc(C(F)(F)F)ccc1S(=O)(=O)N1C[C@H](S(=O)(=O)c2ccc(F)c(F)c2)[C@](O)(CO)C1 [Example 93, 2-(((3R,4S)-4-((3,4-difluorophenyl)sulfonyl)-3-hydroxy-3-(hydroxymethyl)pyrrolidin-1-yl)sulfonyl)-5-(trifluoromethyl)benzonitrile]

SMILES: N#Cc1cc(C(F)(F)F)ccc1S(=O)(=O)N1C[C@H](S(=O)(=O)c2cc(F)c(F)c(F)c2)[C@](O)(CO)C1 [Example 94, 2-(((3R,4S)-3-hydroxy-3-(hydroxymethyl)-4-((3,4,5-trifluorophenyl)sulfonyl)pyrrolidin-1-yl)sulfonyl)-5-(trifluoromethyl)benzonitrile]
- IC50: 0.01 to 0.1 µM

SMILES: N#Cc1cc(F)c(S(=O)(=O)[C@H]2CN(S(=O)(=O)c3ccc(Cl)cc3Cl)C[C@@]2(O)CO)cc1F [Example 95, 4-(((3S,4R)-1-((2,4-dichlorophenyl)sulfonyl)-4-hydroxy-4-(hydroxymethyl)pyrrolidin-3-yl)sulfonyl)-2,5-difluorobenzonitrile]
- IC50: 0.01 to 0.1 µM

SMILES: O=S(=O)(c1ccc(C(F)(F)F)cc1)[C@H]1CN(S(=O)(=O)c2ccc(C(F)(F)F)cc2Cl)C[C@@]1(O)CO [Example 96, (3R,4S)-1-((2-chloro-4-(trifluoromethyl)phenyl)sulfonyl)-3-(hydroxymethyl)-4-((4-(trifluoromethyl)phenyl)sulfonyl)pyrrolidin-3-ol]
- IC50: 0.01 to 0.1 µM
